“And” between values parts separate entries of the source, which are not always exact repeats. Equal entries are not always repeated. Where no end group is shown, it is not given here. [ ]: non-standard residue; d: D form. Pen = CC(C)(S)[C@H](N)C(=O)O

Assay [1] concerns platelets stimulated with thrombin. Description: Thrombin-stimulated platelet aggregation (Born aggregometry). The settings on record: thrombin 2 U/ml, gel-filtered platelets, 37° C. It is filed as cell-based, human. Here is the method: Platelet aggregation was assessed using the method of Born, Nature 194: 927-929 (1962), incorporated herein by reference. Briefly, the change in light transmission was measured through a stirred suspension of platelets in an aggregometer (Model 400 VS, Chrono-Log, Havertown, Pa., USA). […] In studies using thrombin, the PRP was gel-filtered on Sepharose 2B in divalent ion-free Tyrode's solution containing 2% BSA. For all studies, the reference standard was platelet-poor plasma, which was obtained by centrifuging PRP at 1000× g for 5 min.
All aggregation studies were performed at 37° C. with a constantly stirred suspension of 3×10^8 platelets/ml. (Platelet count was determined with the aid of a hemacytometer.) Peptides and stimulants were added to these suspensions in 1% dilutions. The PRP and gel-filtered platelets were used within three hours from the time of blood collection.
Peptide anti-aggregation potencies were determined from dose-responsive curves for the inhibition of the maximum aggregation responses stimulated by physiologic doses of ADP (10 μm) and thrombin (2 U/ml).

Assay [2] has as its system platelets stimulated with ADP. The assay can be described thus: ADP-stimulated platelet aggregation (Born aggregometry, PRP). As to conditions: ADP 10 μm, platelet-rich plasma, 37° C. It counts as cell-based, human.
Experimental: Platelet aggregation was assessed using the method of Born, Nature 194: 927-929 (1962), incorporated herein by reference. Briefly, the change in light transmission was measured through a stirred suspension of platelets in an aggregometer (Model 400 VS, Chrono-Log, Havertown, Pa., USA). Studies employing ADP were performed with platelet-rich plasma (PRP), which was obtained by low-speed centrifugation (200× g for 10 min.) of whole blood freshly drawn into trisodium citrate (at a final concentration of 11 mM). […] For all studies, the reference standard was platelet-poor plasma, which was obtained by centrifuging PRP at 1000× g for 5 min.
The test system of assay [3] is canine platelet aggregation. Description: In vitro canine platelet aggregation stimulated by ADP, arachidonic acid or collagen. It counts as cell-based, dog. As to conditions: 10 μm ADP, […] arachidonic acid or 9.6 micrograms/ml collagen; PRP; read-out: IC50 against canine platelet aggregation. On the procedure: (§1) Platelet counts and ex vivo aggregation studies were performed one hour before and 1, 3, and 5 hours after application of anodal direct current.
Epinephrine (550 nM) was used to prime platelets before stimulation with arachidonic acid. Peptides were added in 1% dilutions to the PRP solutions.

Another assay relates to platelet aggregation. The assay can be described thus: Ex vivo platelet aggregation after peptide injection in canine coronary thrombosis model. Also on record: species or system dog. The settings on record: for ex vivo aggregation reduced relative to control: 3 mg/kg. Here is the method:
For all ex vivo studies (see FIGS. 3a, 3b1, 3b2, 3b3, 3c1 and 3c2), control aggregation values were standardized to the percentages of light transmission observed in PRP and PPP samples (0% and 100%, respectively).
(§2) Animals were randomly assigned to two treatment groups: vehicle control (i.e., normal saline) or RGD peptides at various concentrations. Peptides were administered intra-atrially in both bolus and continuous injections. […] A continuous infusion of the same peptide was then started immediately after completion of this initial injection. Animals that received a 5 mg/kg bolus also received a 5 mg/kg/hr infusion, whereas animals that received a 10 mg/kg bolus also received a 10 mg/kg/hr infusion. The anti-thrombotic effects of the peptides were monitored until 30 minutes after the occurrence of a persistent, occlusive thrombus or five hours after the initiation of electrical stimulation (whichever resulted first). If an occlusive thrombus had not developed within four hours after the initiation of current, the peptide infusion was stopped.
as §1
Platelet aggregation was also determined ex vivo at one, three, and five hours after current application. For these studies, arachidonic acid, or collagen was again used to stimulate the platelets.
The average aggregation values determined in these studies for all of the peptide treatments are depicted in FIGS. 3a, 3b1, 3b2, 3b3, 3c1, and 3c2. […] The control responses in these studies were 70-80% of maximum. […] Here the control responses were 55-80% of maximum.

A further assay has as its system coronary thrombosis. The assay can be described thus: Electrically induced canine coronary thrombosis, time to full occlusion. It counts as in vivo, dog. Here is the method:
Male mongrel dogs weighing 14 to 20 kg were selected based on proper aggregation of their platelets in response to arachidonic acid, collagen, and adenosine disphosphate (ADP) and based on similar weights and hemodynamic properties.
Before surgery, the animals were anesthetized with sodium pentobarbital (30 mg/kg, i.v.) and then intubated and ventilated on room air with positive pressure using a respirator (Harvard Apparatus, S. Natick, Mass.) at a volume of 30 ml/kg and a frequency of 12 breaths/min. Surgery, performed under aseptic conditions, was begun with the placement of cannulae into the left carotid artery and jugular vein for monitoring arterial blood pressure (Statham P23 pressure transducer, Gould, Inc., Cardiovascular Products, Oxnard, Calif.) and administering intravenous fluids.
The heart was exposed via a left thoracotomy through the 5th intercostal space. A 2-cm segment of the left circumflex coronary artery (LCCA) was isolated from surrounding tissue by blunt dissection. […] The intra-coronary electrode was constructed by attaching a 25-gauge hypodermic needle tip to a 30-gauge Teflon-insulated silver-coated copper wire. The mechanical occluder was constructed of stainless steel in a C shape with a Teflon screw (2 mm diameter) on top. It was adjusted to control vessel circumference and decrease the reactive hyperemic flow due to a 10-sec (full) occlusion by 50-70% without affecting basal coronary blood flow (FIG. 1c). A monopolar epicardial electrode was sutured to the surface of the ventricle in the region of LCCA distribution to monitor ischemic changes in the electrocardiogram (ECG). The left atrium was cannulated with polythylene tubing for administration of the peptide. Continuous recordings of blood pressure, limb lead II ECG, epicardial electrogram, and mean and phasic LCCA blood flow were obtained on a Model 7 polygraph (Grass Instrument Co., Quincy, Mass.).
One hour after the completion of surgery, a 100 micro-amp continuous anodal direct current delivered from a 9 volt nickel-cadmium battery was applied to the intimal surface of the LCCA. The anode of the battery was in series with a 250,000 ohm potentiometer and the intraluminal coronary artery electrode. The electric circuit was completed by placing the cathode in a subcutaneous site. Electrical stimulation was applied for three hours. At the conclusion of each experiment, the heart was fibrillated electrically and quickly removed, and the LCCA was dissected free as far as possible to verify the position of the implanted anodal electrode.
as §2
Coronary thrombosis was quantified as the time to full occlusion. The effects of the various peptide treatments on coronary thrombosis is illustrated in FIG. 4.

[4] abbreviates: 10 mg/kg bolus + 10 mg/kg/hr infusion, intra-atrial.

Broadly, the IC50 is the concentration that gives 50% inhibition. Regarding GPenLRGDSPCA, the IC50 in assay [1] stood at 308 µM; in assay [2], 415 µM. In turn, R(orn)GHRGDLRDR yielded an IC50 in assay [2] of over 200 µM. With RPenGRGDTPCA, the half-maximal inhibitory concentration (IC50) came to 3.1 µM in assay [1] and 7 µM in assay [2]. On to GPenGRGDRPCA, for which the IC50 in assay [2] worked out at 22.3 µM. For the substance RPenGHRGDWRCR, the IC50 in assay [3] is 1.5 to 5 µM; in assay [1], 1.2 µM; in assay [2], 1.3 µM. Also, the “ex vivo inhibition of platelet activation by collagen” value in the assay with platelet aggregation (5 mg/kg) is given as “near-maximal inhibition”. The “ex vivo platelet response to ADP and AA” value in the assay on platelet aggregation (5 mg/kg, all three time points) is recorded as “completely unresponsive”. In addition, the “ex vivo anti-aggregation effect when platelet count was low” value in the assay on platelet aggregation (5 mg/kg, platelet count ca. one-third of normal (104,000/ml vs. 361,000/ml)) is recorded as “more pronounced”. Further, in the assay on platelet aggregation (10 mg/kg, five-hour point), the “ex vivo platelet responsiveness” value is listed as “slightly improved”. In the assay with platelet aggregation (10 mg/kg, one- and three-hour time points), the “ex vivo platelet aggregation by all three stimuli” value is “prevented platelet aggregation”. The “thrombus formation in animals with circulating platelet levels one-third of normal” value in the assay with coronary thrombosis (5 mg/kg) is “able to prevent thrombus formation”. Moreover, the “time to full occlusion” value in the assay with coronary thrombosis (5 mg/kg bolus + 5 mg/kg/hr infusion) is “significantly prolonged the time to occlusion”; with coronary thrombosis (setting [4]), “completely prevented occlusion”. Take GPenGRGDTPCA: the IC50 in assay [1] was found to be 28 µM; in assay [2], 22.3 µM. In the case of (t-but-am-Pmp)GHRGDLRPenA, in assay [2], the IC50 turned out to be 89 µM. The same measure, in the same setting: then (t-butylAmino-Pmp) GHRGDLRCA, with 130 µM. On the same count and under the same terms, then “R[Pen]GHRGDTRCR (cysteine pairing not given here)”, with 8.8 µM. Consider GPenGHRGDTRCA, for which the results for the IC50 in assay [1] and in assay [2] were 17 µM and 11.3 µM, respectively. In assay [2], FRGDSPDG returned a concentration for half-maximal inhibition (IC50) of 110 µM. The same measure, in the same setting: the figure for LPenGHRGDLRCA is 10.5 µM. The same measure, in the same setting: then GPenFRGDSFCA, with over 200 µM. Substance “G[Pen]YRGDSPCA (cysteine pairing not given here)” showed a concentration for half-maximal inhibition (IC50) in assay [2] of 47 µM. For “R[Pen]GRGDLRCA (cysteine pairing not given here)”, the IC50 in assay [1] came to 13 µM; in assay [2], 16 µM.

As to R2 PenGRGDTPCA, the values for the IC50 in assay [1] and in assay [2] were 2.7 µM and 8.2 µM, respectively. For RPenGRGDTPCR, in that order: 2 µM and 6.3 µM.

VRGDSPDG: in assay [2], the IC50 is 92 µM. On to RPenGRGDWPCR, for which the half-inhibitory concentration (IC50) in assay [3] was 1.5 to 5 µM; in assay [1], 0.53 µM. Moreover, the “ex vivo aggregation reduced relative to control” value in the assay with platelet aggregation (one hour) was 20-58%; in the assay with platelet aggregation (three and five hours, listed as 4R) it was 75-100% and 72-100%. Further, the “ex vivo platelet response to all modes of stimulation” value with platelet aggregation (10 mg/kg, all time points) was “unresponsive”. The “time to full occlusion” value in the assay with coronary thrombosis (3 mg/kg) is “ineffective”; in the assay with coronary thrombosis (setting [4]), “prevented occlusion”.

LRGDSPDG: in assay [2], the IC50 was 150 µM.

On to RPenGRGDTPCK, for which half-maximal inhibition in assay [2] (IC50) required 7.6 µM. On the same count and under the same terms, the figure for PmpGRGDTPCA is 85 µM; for “G[Pen]GRGDSFCA (cysteine pairing not given here)” it is 115 µM; for GPenLRGDTPCA it is 86 µM.

Take GPenLRGDSRCA: the IC50 in assay [1] is 49 µM; in assay [2] it was 41 µM. For “R[Pen]GRGDSRCA (cysteine pairing not given here)”, in that order: 12 µM and 12 µM.

Source of the values: US5648330A, “Method and composition for treating vascular graft occlusion” (La Jolla Cancer Research Foundation, priority 1995, dated 1997).
